This is an account of results in patent US20090210952A1, “Compositions and Methods Related to Controlled Gene Expression Using Viral Vectors” (priority 2005, published 2009).

Experiment [1] concerns transgenic mice containing a tet regulatable system. To be noted: previous study; cited from earlier work.
Another experiment relates to GFP expression. Kind of experiment: DOX concentration required to induce GFP expression in infected cells (fluorescent microscopy). The format is cell-based. To be noted: within 48 hours; cells infected with viral particles from pHReGFPO2/EFtet/blas. Here is the method:
To determine the DOX concentration required to induce gene expression in the single vector system, different concentration of DOX were added to cells infected with viral particles derived from pHReGFPO2/EFtet/blas (titer 2.5×10^6/ml). GFP expression was monitored by fluorescent microscopy.

The next experiment concerns transgenic mice. The experiment is described as follows: Induction of eGFP expression in transgenic mice by drinking water containing DOX. The format is in vivo, mouse. As for the experimental part: To determine whether the inducible constructs could induce eGFP expression in vivo, the transgenic mice were fed drinking water containing 100 μg/ml DOX. GFP expression in the body (paw) and PBMCs was analyzed by fluorescent microscopy and FACS analysis before and after the transgenic mice were fed DOX.
A previous study reported that a DOX concentration of 0.1-10 mg/ml in the drinking water of transgenic mice containing a tet regulatable system, was required for inducible gene expression within the animal. To determine the concentration of DOX required for inducible expression of GFP in the transgenic mice described above, the F1 mice from CAG-founder 6# were divided into the four groups which were fed drinking water containing different concentrations of DOX including 0 ug/ml (Group 1), 4 ug/ml (Group 2), 20 ug/ml (Group 3), and 100 ug/ml (Group 4). GFP expression was monitored by visualizing GFP expression in the fingers of the transgenic mouse under UV light after 0, 1, 2, 3, 5 and 18 days of feeding the mice DOX. The intensity of the fluorescent signal in the fingers of the tested mice over the course of the experiment was observed. […] The intensity of the fluorescent signal for Groups 3 and 4 expressed their highest level of GFP expression after 5 days of DOX feeding. In addition, 4 ug/ml of DOX fed to the mice of Group 2 mice was sufficient to induce GFP expression, however the induction was delayed and the intensity was relatively weak as compared to Group 3 and 4 mice. Also of note is that the intensity of a fluorescent signal appeared in a does-dependent manner.
Using the FACS, positive blood cells expressing GFP were isolated and quantified. […] For all mice of Groups 2, 3 and 4, both the number and intensity of GFP expressing cells increased after the mice were fed DOX.
To determine the pharmacokinetics of DOX, 43% of the blood cells expressed GFP from Group 4 mice (after 18 days of DOX feeding), this level was used to set the threshold of 100 percent induction.

With `C[C@H]1c2cccc(O)c2C(O)=C2C(=O)[C@]3(O)C(O)=C(C(N)=O)C(=O)[C@@H](N(C)C)[C@@H]3[C@@H](O)[C@@H]21` [DOX, doxycycline], in experiment [1], the “DOX concentration in the drinking water required for inducible gene expression” value was 0.1 to 10 mg/mL. Besides, in the experiment with GFP expression, the “DOX sufficient to induce GFP expression” value amounted to 15 ng. Moreover, the “time of DOX feeding until mice began to express GFP” value in the experiment on transgenic mice (20 ug/ml and 100 ug/ml DOX (Group 3 and Group 4)) was determined as 1 days. Further, the “time of DOX feeding to highest level of GFP expression” value in the experiment on transgenic mice (20 ug/ml and 100 ug/ml DOX (Groups 3 and 4)) turned out to be 5 days. Also, the “DOX concentration in drinking water sufficient to induce GFP expression” value in the experiment with transgenic mice (F1 mice from CAG-founder 6#, fingers under UV light, induction delayed, intensity relatively weak) worked out at 4 µg/mL. Also, the “blood cells expressing GFP” value in the experiment with transgenic mice (Group 4 (100 ug/ml DOX), after 18 days of DOX feeding, FACS) is listed as 43%.
